Laboratory results taken from ChEMBL document CHEMBL1140455, “On the search of new I2-IBS aliphatic ligands: bis-guanidino carbonyl derivatives” (Bioorg Med Chem Lett, 2007).

Experiment: Displacement of [3H]2-BFI from I2-IBS in human frontal cortex membranes
Type: cell membranes, Membrane

SMILES | Log Ki
N=C(N)NC(=O)CCCCCCCCC(=O)NC(=N)N | -6.11
N=C(N)NC(=O)CCCCCCCCCCCC(=O)NC(=N)N | -5.06
N=C(N)NC(=O)CCCCCCCCCCCCC(=O)NC(=N)N | -5.91
N=C(N)NCCCCCCCCCCCCNC(=N)N | -7.48
c1ccc2c(c1)OCC(C1=NCCN1)O2 (stereo not drawn) [IDAZOXAN] | -7.43

More lines, now with the values ahead:

Log Ki | SMILES
-5.2 | N=C(N)NC(=O)CCCCCCCCCC(=O)NC(=N)N
-5.7 | N=C(N)NC(=O)CCCCCCCCCCCCCCC(=O)NC(=N)N
-5.69 | N=C(N)NC(=O)CCCCCCCCCCC(=O)NC(=N)N
